The text below walks through data of paper PMC9962402, “Fast and Simple Liquid Chromatography-Isotope Dilution Tandem Mass Spectrometry Method for Therapeutic Drug Monitoring of Dalbavancin in Long-Term Treatment of Subacute and/or Chronic Infections” (Pharmaceutics, 2023).

A short description of data set [1]: Stability of DBV in sample extracts (autosampler, freezer). The note with it: for Avg Accuracy (Bias%): vs nominal concentration, LC-MS/MS. The class given is physicochemical.
A short description of data set [2]: Freeze-thaw stability of DBV in plasma samples. Here is the method: Stability of DBV was assessed by comparing the nominal concentrations of LQC, MQC and HQC with those observed under two different conditions: • sample extracts kept on board at 10 °C for 24 h and frozen at −80 °C for 24 h; • plasma samples analyzed after three complete freeze and thaw cycles (from −80 °C to 25 °C).
Stability in the above operating conditions was deemed suitable if DBV concentrations were within ±15% of the nominal value.

For data set [3] the following is noted: human, in vivo.
Description: Plasma samples (3 μL) were added to 47 μL of ultrapure water to achieve a dilution factor of 17 and then mixed with 150 μL of the IS-methanol solution (1 mg/L DBV-d6). The mixture was vortexed for 15 s and then centrifuged at room temperature at 13,000 rpm for 5 min. Subsequently, 50 µL of the clear supernatant was transferred to an autosampler vial, and a volume of 3 µL was injected into the LC-MS/MS system (Figure 2).
The presented ITD LC-MS/MS method was tested for measuring DBV concentrations in patients receiving DBV for the treatment of long-term subacute or chronic documented Gram-positive infections (namely osteoarticular infections, endocarditis, and endovascular prosthetic infections). In our study, DBV treatment was started according to the internal protocol consisting of two 1500 mg doses one week apart. Requirement for additional doses was assessed by the treating physician after at least four weeks according to the underlying clinical conditions of each patient. […] The number of samples assessed was 520. Samples for Dalbavancin TDM were usually collected at predefined timeframes between 21 and 35 days after first administration. […] Blood samples respected the cold chain delivery and were processed either immediately after delivery or after freezing at −80 °C until analysis, depending on case-by-case.
The conditions of data set [4]: human; cited from earlier work.

For `CN[C@H]1C(=O)N[C@@H]2Cc3ccc(cc3)Oc3cc4cc(c3O[C@@H]3O[C@H](C(=O)O)[C@@H](O)[C@H](O)[C@H]3NC(=O)CCCCCCCCC(C)C)Oc3ccc(cc3Cl)[C@@H](O)[C@@H]3NC(=O)[C@H](NC(=O)[C@@H]4NC(=O)[C@@H](NC2=O)c2cc(cc(O)c2Cl)Oc2cc1ccc2O)c1ccc(O)c(c1)-c1c(O[C@H]2O[C@H](CO)[C@@H](O)[C@H](O)[C@@H]2O)cc(O)cc1[C@@H](C(=O)NCCCN(C)C)NC3=O` [DBV, Dalbavancin], the “Avg Accuracy (Bias%)” value in data set [1] (extract (MeOH:H2O protein precipitation of plasma) kept in autosampler at 10 °C, post 24 h, Low QC 7 mg/L, acceptance ±15%) is 22.1%; in data set [1] (extract in freezer (−80 °C) post 24 h, High QC 280 mg/L), 12.3%; in data set [1] (extract in freezer (−80 °C) post 24 h, Low QC 7 mg/L) it was 16.8%; in data set [1] (extract in freezer (−80 °C) post 24 h, Medium QC 70 mg/L), 6.7%; in data set [1] (extract kept in autosampler at 10 °C, post 24 h, High QC 280 mg/L) it was 14.8%; in data set [1] (extract kept in autosampler at 10 °C, post 24 h, Medium QC 70 mg/L), 9.4%. For the same molecule, the “Avg Accuracy (Bias%)” value in data set [2] (human plasma samples, 1 freeze-thaw cycle (−80 °C to 25 °C), Low QC 7 mg/L, vs nominal, LC-MS/MS) stood at 14.8%. For the same molecule, the “time for which autosampler extracts were stable” value in data set [1] (extracts kept at 10 °C) is given as “at least 24 h”. Also, in data set [2], the “change of DBV concentrations after freeze and thaw cycles” value is recorded as “decreased”. The “DBV concentration, first quartile” value in data set [3] is reported as 11 mg/L. The “DBV concentration, maximum” value in data set [3] worked out at 77.0 mg/L. In data set [3], the “DBV concentration, minimum” value was found to be 2.0 mg/L. Also, in data set [3], the “DBV concentration, third quartile” value was found to be 31.8 mg/L. Also, the “DBV concentration, median” value in data set [3] (1500 mg) is 18 mg/L. Further, in data set [4], the plasma protein binding entry is “very high”.
